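Values below derive from 48-hour exposures of cells grown in 96-well plates, with endpoints linearly interpolated between the two concentrations bracketing the appropriate inhibition level. Abbreviation: GI50, concentration required for 50% inhibition of growth.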 The source made the active and inactive calls. Rule as the data show it: active = GI50 up to about 1.1 µM and inactive = higher.
What was measured:
Assay in all cases: growth of human tumour cells (NCI), 48 h
[1] = test system: OVCAR-5
[2] = test system: HCT-15
[3] = test system: NCI-H460
[4] = test system: IGROV-1
[5] = test system: SN12C
[6] = test system: K562
[7] = test system: SF-268
[8] = test system: A549
[9] = test system: SK-MEL-28
[10] = test system: SNB-19
[11] = test system: COLO 205
[12] = test system: SNB-75
[13] = test system: SF-539
[14] = test system: HOP-62
[15] = test system: HT-29
[16] = test system: MDA-MB-435
[17] = test system: SF-295
[18] = test system: T47D
[19] = test system: NCI/ADR-RES

Compound | GI50 [1] | GI50 [2] [µM] | GI50 [3] | GI50 [4] | GI50 [5] | GI50 [6] | GI50 [7] | GI50 [8] | GI50 [9] | GI50 [10] | GI50 [11] | GI50 [12] | GI50 [13] | GI50 [14] | GI50 [15] | GI50 [16] | GI50 [17] | GI50 [18] | GI50 [19]
CC(C)OP(=O)(OC(C)C)/C(=N/Nc1ccccc1[N+](=O)[O-])NCCN/C(=N\Nc1ccccc1[N+](=O)[O-])P(=O)(OC(C)C)OC(C)C | 24.2 µM (inactive) | 30.3 | > 10 µM (inactive) | 27.9 µM (inactive) | 43.7 µM (inactive) | 35.3 µM (inactive) | 67.1 µM (inactive) | 29.4 µM (inactive) | 39.4 µM (inactive) | 38 µM (inactive) | 25.2 µM (inactive) | 89.3 µM (inactive) | 38.1 µM (inactive) | 52.8 µM (inactive) | – | – | – | – | –
O=C(N/N=C/c1ccc(Cl)cc1)c1ccccc1Nc1ccccc1C(=O)N/N=C/c1ccc(Cl)cc1 | 38.6 µM (inactive) | > 100 | > 100 µM (inactive) | > 100 µM (inactive) | > 100 µM (inactive) | > 100 µM (inactive) | > 100 µM (inactive) | 88.7 µM (inactive) | > 100 µM (inactive) | > 100 µM (inactive) | > 100 µM (inactive) | > 100 µM (inactive) | – | > 100 µM (inactive) | > 100 µM (inactive) | > 100 µM (inactive) | 54 µM (inactive) | > 100 µM (inactive) | > 100 µM (inactive)
CCOC(OCC)[C@H](N)[C@@H](O)[C@@H](O)[C@H]1COC(C)(C)O1 | > 100 µM (inactive) | > 100 | – | > 100 µM (inactive) | > 100 µM (inactive) | > 100 µM (inactive) | > 100 µM (inactive) | > 100 µM (inactive) | > 100 µM (inactive) | > 100 µM (inactive) | > 100 µM (inactive) | > 100 µM (inactive) | – | > 100 µM (inactive) | > 100 µM (inactive) | > 100 µM (inactive) | > 100 µM (inactive) | – | > 100 µM (inactive)
NC1=NS(=O)(=O)Nc2nc(-c3ccc(Cl)cc3)[nH]c21 | > 100 µM (inactive) | > 100 | > 100 µM (inactive) | > 100 µM (inactive) | > 100 µM (inactive) | > 100 µM (inactive) | > 100 µM (inactive) | > 100 µM (inactive) | > 100 µM (inactive) | > 100 µM (inactive) | > 100 µM (inactive) | 62.7 µM (inactive) | > 100 µM (inactive) | > 100 µM (inactive) | > 100 µM (inactive) | – | > 100 µM (inactive) | – | –
Cc1cn(C2OC(C)(CO)C(O)C2O)c(=O)[nH]c1=O (stereo not given) | > 100 µM (inactive) | > 100 | > 100 µM (inactive) | > 100 µM (inactive) | > 100 µM (inactive) | > 100 µM (inactive) | > 100 µM (inactive) | > 100 µM (inactive) | > 100 µM (inactive) | > 100 µM (inactive) | > 100 µM (inactive) | > 100 µM (inactive) | > 100 µM (inactive) | > 100 µM (inactive) | > 100 µM (inactive) | – | > 100 µM (inactive) | – | –
CN(C)C(=O)C(F)(F)C(c1ccc(C(F)(F)F)cc1)C1C(=O)N(C)C(=O)N(C)C1=O (stereo not given) | > 100 µM (inactive) | > 100 | > 100 µM (inactive) | – | – | – | > 100 µM (inactive) | > 100 µM (inactive) | > 100 µM (inactive) | > 100 µM (inactive) | > 100 µM (inactive) | > 100 µM (inactive) | – | > 100 µM (inactive) | – | > 100 µM (inactive) | > 100 µM (inactive) | > 100 µM (inactive) | > 100 µM (inactive)
Cc1ncc(COP(=O)(O)O)c(C)c1O | > 100 µM (inactive) | > 100 | > 100 µM (inactive) | > 100 µM (inactive) | > 100 µM (inactive) | > 100 µM (inactive) | > 100 µM (inactive) | > 100 µM (inactive) | > 100 µM (inactive) | > 100 µM (inactive) | – | – | – | > 100 µM (inactive) | > 100 µM (inactive) | > 100 µM (inactive) | > 100 µM (inactive) | > 100 µM (inactive) | > 100 µM (inactive)
C[C@H]1CC(=O)C2=CCCC3(SCCCS3)[C@@H]2[C@H]1CO | > 100 µM (inactive) | – | > 100 µM (inactive) | > 100 µM (inactive) | > 100 µM (inactive) | 47.1 µM (inactive) | > 100 µM (inactive) | > 100 µM (inactive) | > 100 µM (inactive) | > 100 µM (inactive) | > 100 µM (inactive) | > 100 µM (inactive) | > 100 µM (inactive) | > 100 µM (inactive) | > 100 µM (inactive) | – | > 100 µM (inactive) | – | –
CC(C)(C)C1=NC(=P(c2ccccc2)(c2ccccc2)c2ccccc2)C(=O)O1 | > 100 µM (inactive) | – | – | > 100 µM (inactive) | > 100 µM (inactive) | > 100 µM (inactive) | > 100 µM (inactive) | > 100 µM (inactive) | > 100 µM (inactive) | > 100 µM (inactive) | > 100 µM (inactive) | 6.21 µM (inactive) | – | > 100 µM (inactive) | > 100 µM (inactive) | > 100 µM (inactive) | > 100 µM (inactive) | > 100 µM (inactive) | > 100 µM (inactive)
Oc1ccc(Cl)cc1C1=NC(NCN2CCN(CNC3=NC(c4ccccc4)CC(c4cc(Cl)ccc4O)=N3)CC2)=NC(c2ccccc2)C1 (stereo not given) | 50.9 µM (inactive) | 24.4 | 35.2 µM (inactive) | 34.4 µM (inactive) | 24.7 µM (inactive) | 36.2 µM (inactive) | 32.7 µM (inactive) | 36.1 µM (inactive) | > 100 µM (inactive) | 41.6 µM (inactive) | 47.4 µM (inactive) | 35.6 µM (inactive) | 72.1 µM (inactive) | 42.2 µM (inactive) | 36.5 µM (inactive) | 48.6 µM (inactive) | 32.3 µM (inactive) | – | 38.4 µM (inactive)
CCOC(=O)C1=CCOc2cc(N(C)C)ccc21 | – | > 100 | > 100 µM (inactive) | > 100 µM (inactive) | > 100 µM (inactive) | 26.9 µM (inactive) | 97.5 µM (inactive) | > 100 µM (inactive) | > 100 µM (inactive) | > 100 µM (inactive) | > 100 µM (inactive) | 43.4 µM (inactive) | > 100 µM (inactive) | > 100 µM (inactive) | > 100 µM (inactive) | > 100 µM (inactive) | > 100 µM (inactive) | – | > 100 µM (inactive)
CCOC(=O)c1c(NC(=O)c2ccc(Br)cc2)sc2c1CCCC2 | > 100 µM (inactive) | – | 0.182 µM (active) | 97.1 µM (inactive) | > 100 µM (inactive) | > 100 µM (inactive) | > 100 µM (inactive) | > 100 µM (inactive) | > 100 µM (inactive) | > 100 µM (inactive) | > 100 µM (inactive) | – | > 100 µM (inactive) | > 100 µM (inactive) | > 100 µM (inactive) | > 100 µM (inactive) | > 100 µM (inactive) | > 100 µM (inactive) | –
N#CCCC(CC#N)N1CCN(C(CC#N)CCC#N)CC1 (stereo not given) | > 100 µM (inactive) | > 100 | > 100 µM (inactive) | > 100 µM (inactive) | > 100 µM (inactive) | > 100 µM (inactive) | > 100 µM (inactive) | > 100 µM (inactive) | > 100 µM (inactive) | > 100 µM (inactive) | > 100 µM (inactive) | > 100 µM (inactive) | > 100 µM (inactive) | > 100 µM (inactive) | > 100 µM (inactive) | – | > 100 µM (inactive) | – | > 100 µM (inactive)
O=C1CSC(c2ccc([N+](=O)[O-])cc2)N1c1nc(-c2ccc3c(c2)CCCC3)cs1 (stereo not given) | > 100 µM (inactive) | > 100 | > 100 µM (inactive) | 25.1 µM (inactive) | > 100 µM (inactive) | > 100 µM (inactive) | > 100 µM (inactive) | – | > 100 µM (inactive) | > 100 µM (inactive) | > 100 µM (inactive) | 86.9 µM (inactive) | 27.2 µM (inactive) | > 100 µM (inactive) | > 100 µM (inactive) | 33.4 µM (inactive) | > 100 µM (inactive) | – | > 100 µM (inactive)
CC1(C)S[C@H](CN)N[C@H]1C(=O)OC(c1ccccc1)c1ccccc1 | 60.8 µM (inactive) | 36.1 | – | 37.4 µM (inactive) | 32.4 µM (inactive) | 22.9 µM (inactive) | 88.1 µM (inactive) | 42.2 µM (inactive) | 56.5 µM (inactive) | – | 17.6 µM (inactive) | 84.3 µM (inactive) | – | 49.9 µM (inactive) | 33.7 µM (inactive) | 30.3 µM (inactive) | 41.7 µM (inactive) | 27.9 µM (inactive) | > 100 µM (inactive)
CC1=CC(=O)/C(=C/NC(=O)NN)C(=O)O1 | > 100 µM (inactive) | > 100 | > 100 µM (inactive) | 58.5 µM (inactive) | > 100 µM (inactive) | – | > 100 µM (inactive) | > 100 µM (inactive) | 54.5 µM (inactive) | > 100 µM (inactive) | > 100 µM (inactive) | 45.4 µM (inactive) | 77.8 µM (inactive) | > 100 µM (inactive) | – | > 100 µM (inactive) | > 100 µM (inactive) | – | 94.2 µM (inactive)
CCN(CC)C(=S)Nc1ccc(-c2cc3ccc(O)cc3oc2=O)cc1 | 26.2 µM (inactive) | 19.7 | 31.4 µM (inactive) | 30.6 µM (inactive) | 27 µM (inactive) | 18.4 µM (inactive) | 32.1 µM (inactive) | 44.9 µM (inactive) | 25.9 µM (inactive) | 29.9 µM (inactive) | 29.4 µM (inactive) | 16.4 µM (inactive) | 29.2 µM (inactive) | – | 16.8 µM (inactive) | 28.6 µM (inactive) | 36.5 µM (inactive) | – | 20.6 µM (inactive)
